From ChEMBL document CHEMBL5442741, “ASAP - In vitro kinase profile” (2024)
“And” between values parts separate entries of the source, which are not always exact repeats. Equal values may be shown once.

Assays:
[1] = molecular target: T1, Serine/threonine-protein kinase 17A (Homo sapiens) (UniProt Q9UEE5); experiment: Enzymatic radiometric [Km ATP] KinaseProfiler LeadHunter assay, kinase: DRAK1, catalogue number: 14-668KP The assay has been performed by Eurofins Discovery.; conditions: ATP concentration 10.0 uM, Test compound concentration 10.0 uM
T1 sequence (whole entry): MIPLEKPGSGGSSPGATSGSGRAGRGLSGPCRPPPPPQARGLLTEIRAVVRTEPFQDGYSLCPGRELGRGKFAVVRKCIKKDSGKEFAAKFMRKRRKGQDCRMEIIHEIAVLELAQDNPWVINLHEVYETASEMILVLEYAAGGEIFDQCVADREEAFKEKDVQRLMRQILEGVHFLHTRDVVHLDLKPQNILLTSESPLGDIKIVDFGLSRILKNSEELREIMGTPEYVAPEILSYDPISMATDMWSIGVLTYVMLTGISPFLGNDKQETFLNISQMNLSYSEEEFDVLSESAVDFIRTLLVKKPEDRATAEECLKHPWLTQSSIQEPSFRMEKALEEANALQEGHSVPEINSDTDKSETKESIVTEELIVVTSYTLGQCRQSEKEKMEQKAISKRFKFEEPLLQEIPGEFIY

[2] = molecular target: Tyrosine-protein kinase Lyn (Homo sapiens) (UniProt P07948); experiment: Enzymatic radiometric [Km ATP] KinaseProfiler LeadHunter assay, kinase: Lyn, catalogue number: 14-510KP The assay has been performed by Eurofins Discovery.; conditions: ATP concentration 70.0 uM, Test compound concentration 10.0 uM
[3] = molecular target: Casein kinase I isoform gamma-1 (Homo sapiens) (UniProt Q9HCP0); experiment: Enzymatic radiometric [Km ATP] KinaseProfiler LeadHunter assay, kinase: CK1-gamma1, catalogue number: 14-711KP The assay has been performed by Eurofins Discovery.; conditions: ATP concentration 15.0 uM, Test compound concentration 10.0 uM
[4] = molecular target: T2, Ephrin type-B receptor 4 (Homo sapiens) (UniProt P54760); experiment: Enzymatic radiometric [Km ATP] KinaseProfiler LeadHunter assay, kinase: EphB4, catalogue number: 14-554KP The assay has been performed by Eurofins Discovery.; conditions: ATP concentration 10.0 uM, Test compound concentration 10.0 uM
T2 sequence (whole entry): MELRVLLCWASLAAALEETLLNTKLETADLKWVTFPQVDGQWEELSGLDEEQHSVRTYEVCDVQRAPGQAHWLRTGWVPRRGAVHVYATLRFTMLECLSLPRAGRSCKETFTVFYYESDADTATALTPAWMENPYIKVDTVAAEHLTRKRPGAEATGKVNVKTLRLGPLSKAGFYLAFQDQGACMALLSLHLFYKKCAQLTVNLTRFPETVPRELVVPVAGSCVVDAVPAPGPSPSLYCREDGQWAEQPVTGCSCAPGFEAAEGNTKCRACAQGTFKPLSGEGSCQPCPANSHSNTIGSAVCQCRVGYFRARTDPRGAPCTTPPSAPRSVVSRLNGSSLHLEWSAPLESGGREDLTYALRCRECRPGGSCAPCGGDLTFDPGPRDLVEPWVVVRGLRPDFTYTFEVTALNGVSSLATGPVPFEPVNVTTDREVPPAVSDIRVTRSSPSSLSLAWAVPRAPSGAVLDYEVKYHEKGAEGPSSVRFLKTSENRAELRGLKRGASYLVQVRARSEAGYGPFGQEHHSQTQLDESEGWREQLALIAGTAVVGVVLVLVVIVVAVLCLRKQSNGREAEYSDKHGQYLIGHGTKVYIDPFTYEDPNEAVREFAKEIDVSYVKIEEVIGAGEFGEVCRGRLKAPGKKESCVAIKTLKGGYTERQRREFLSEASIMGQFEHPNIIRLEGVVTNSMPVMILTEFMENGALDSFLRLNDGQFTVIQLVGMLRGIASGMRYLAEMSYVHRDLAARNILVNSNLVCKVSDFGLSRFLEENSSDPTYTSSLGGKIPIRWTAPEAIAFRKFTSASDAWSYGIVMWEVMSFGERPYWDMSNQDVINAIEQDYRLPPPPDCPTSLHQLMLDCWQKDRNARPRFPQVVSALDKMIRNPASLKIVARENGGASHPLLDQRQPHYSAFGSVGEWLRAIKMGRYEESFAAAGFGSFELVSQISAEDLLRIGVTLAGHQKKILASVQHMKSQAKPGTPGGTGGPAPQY

[5] = molecular target: PI3K p110 beta/p85 alpha (Homo sapiens) (UniProt P27986+P42338); experiment: Enzymatic radiometric [Km ATP] KinaseProfiler LeadHunter assay, kinase: PI3 Kinase (p110-beta/p85-alpha), catalogue number: 14-603KP The assay has been performed by Eurofins Discovery.; type: protein-complex assay; conditions: ATP concentration 200.0 uM, Test compound concentration 10.0 uM
[6] = molecular target: cAMP-dependent protein kinase catalytic subunit alpha (Homo sapiens) (UniProt P17612); experiment: Enzymatic radiometric [Km ATP] KinaseProfiler LeadHunter assay, kinase: PKA, catalogue number: 14-440KP The assay has been performed by Eurofins Discovery.; conditions: ATP concentration 10.0 uM, Test compound concentration 10.0 uM
[7] = molecular target: Ephrin type-A receptor 5 (Homo sapiens) (UniProt P54756); experiment: Enzymatic radiometric [Km ATP] KinaseProfiler LeadHunter assay, kinase: EphA5, catalogue number: 14-639KP The assay has been performed by Eurofins Discovery.; conditions: ATP concentration 10.0 uM, Test compound concentration 10.0 uM
[8] = molecular target: Mitogen-activated protein kinase 14 (Homo sapiens) (UniProt Q16539); experiment: Enzymatic radiometric [Km ATP] KinaseProfiler LeadHunter assay, kinase: SAPK2a, catalogue number: 14-251KP The assay has been performed by Eurofins Discovery.; conditions: ATP concentration 90.0 uM, Test compound concentration 10.0 uM
[9] = molecular target: Serine/threonine-protein kinase mTOR (Homo sapiens) (UniProt P42345); experiment: Enzymatic radiometric [Km ATP] KinaseProfiler LeadHunter assay, kinase: mTOR, catalogue number: 14-769KP The assay has been performed by Eurofins Discovery.; conditions: ATP concentration 70.0 uM, Test compound concentration 10.0 uM

Tyrosine-protein kinase Lyn (Homo sapiens), sequence (P07948 2-512 limits assumed): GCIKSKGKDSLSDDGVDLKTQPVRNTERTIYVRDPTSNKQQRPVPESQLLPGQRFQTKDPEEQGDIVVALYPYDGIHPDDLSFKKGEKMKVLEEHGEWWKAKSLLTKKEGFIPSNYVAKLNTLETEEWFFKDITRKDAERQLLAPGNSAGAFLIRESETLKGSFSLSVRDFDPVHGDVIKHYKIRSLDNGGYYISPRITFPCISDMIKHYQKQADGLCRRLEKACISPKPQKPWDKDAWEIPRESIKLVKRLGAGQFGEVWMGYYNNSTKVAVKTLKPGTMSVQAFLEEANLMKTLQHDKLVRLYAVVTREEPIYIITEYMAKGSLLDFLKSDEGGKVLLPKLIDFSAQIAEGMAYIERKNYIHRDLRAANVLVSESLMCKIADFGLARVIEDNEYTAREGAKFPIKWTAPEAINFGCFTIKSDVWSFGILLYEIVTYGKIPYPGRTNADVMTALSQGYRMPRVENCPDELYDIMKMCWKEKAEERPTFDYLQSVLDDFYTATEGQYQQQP
Mitogen-activated protein kinase 14 (Homo sapiens), sequence (Q16539 whole entry): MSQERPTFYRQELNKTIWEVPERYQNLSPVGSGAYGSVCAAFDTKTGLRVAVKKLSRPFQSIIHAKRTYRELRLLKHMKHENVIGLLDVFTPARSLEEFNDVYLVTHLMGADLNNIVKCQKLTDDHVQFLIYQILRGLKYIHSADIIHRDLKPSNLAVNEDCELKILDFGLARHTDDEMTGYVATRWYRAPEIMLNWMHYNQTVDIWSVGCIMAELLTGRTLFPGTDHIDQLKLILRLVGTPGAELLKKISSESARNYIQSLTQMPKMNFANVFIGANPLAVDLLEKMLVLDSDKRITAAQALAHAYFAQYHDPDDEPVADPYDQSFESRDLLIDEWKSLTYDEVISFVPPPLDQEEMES
PI3K p110 beta/p85 alpha (Homo sapiens), sequence (P27986 2-724 limits assumed): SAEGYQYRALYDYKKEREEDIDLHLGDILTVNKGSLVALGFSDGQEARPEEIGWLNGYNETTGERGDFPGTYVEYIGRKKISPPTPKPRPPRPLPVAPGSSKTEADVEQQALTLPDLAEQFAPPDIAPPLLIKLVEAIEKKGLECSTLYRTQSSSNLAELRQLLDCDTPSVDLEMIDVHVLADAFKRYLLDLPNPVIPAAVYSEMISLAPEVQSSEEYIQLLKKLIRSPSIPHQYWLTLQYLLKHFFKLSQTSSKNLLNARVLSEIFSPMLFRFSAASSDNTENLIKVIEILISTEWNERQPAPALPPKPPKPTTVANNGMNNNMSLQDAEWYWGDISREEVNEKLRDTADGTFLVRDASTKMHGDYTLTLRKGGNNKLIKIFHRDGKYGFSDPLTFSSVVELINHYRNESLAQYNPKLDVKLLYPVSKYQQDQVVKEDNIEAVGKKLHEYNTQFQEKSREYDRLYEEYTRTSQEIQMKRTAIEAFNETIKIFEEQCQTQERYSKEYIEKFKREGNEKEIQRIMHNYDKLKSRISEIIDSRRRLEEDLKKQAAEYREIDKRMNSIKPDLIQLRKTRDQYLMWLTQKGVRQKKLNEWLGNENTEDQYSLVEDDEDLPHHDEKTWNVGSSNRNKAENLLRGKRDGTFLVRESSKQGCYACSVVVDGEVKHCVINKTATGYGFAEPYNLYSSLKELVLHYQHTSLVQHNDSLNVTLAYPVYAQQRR
PI3K p110 beta/p85 alpha (Homo sapiens), sequence (P42338 whole entry partner): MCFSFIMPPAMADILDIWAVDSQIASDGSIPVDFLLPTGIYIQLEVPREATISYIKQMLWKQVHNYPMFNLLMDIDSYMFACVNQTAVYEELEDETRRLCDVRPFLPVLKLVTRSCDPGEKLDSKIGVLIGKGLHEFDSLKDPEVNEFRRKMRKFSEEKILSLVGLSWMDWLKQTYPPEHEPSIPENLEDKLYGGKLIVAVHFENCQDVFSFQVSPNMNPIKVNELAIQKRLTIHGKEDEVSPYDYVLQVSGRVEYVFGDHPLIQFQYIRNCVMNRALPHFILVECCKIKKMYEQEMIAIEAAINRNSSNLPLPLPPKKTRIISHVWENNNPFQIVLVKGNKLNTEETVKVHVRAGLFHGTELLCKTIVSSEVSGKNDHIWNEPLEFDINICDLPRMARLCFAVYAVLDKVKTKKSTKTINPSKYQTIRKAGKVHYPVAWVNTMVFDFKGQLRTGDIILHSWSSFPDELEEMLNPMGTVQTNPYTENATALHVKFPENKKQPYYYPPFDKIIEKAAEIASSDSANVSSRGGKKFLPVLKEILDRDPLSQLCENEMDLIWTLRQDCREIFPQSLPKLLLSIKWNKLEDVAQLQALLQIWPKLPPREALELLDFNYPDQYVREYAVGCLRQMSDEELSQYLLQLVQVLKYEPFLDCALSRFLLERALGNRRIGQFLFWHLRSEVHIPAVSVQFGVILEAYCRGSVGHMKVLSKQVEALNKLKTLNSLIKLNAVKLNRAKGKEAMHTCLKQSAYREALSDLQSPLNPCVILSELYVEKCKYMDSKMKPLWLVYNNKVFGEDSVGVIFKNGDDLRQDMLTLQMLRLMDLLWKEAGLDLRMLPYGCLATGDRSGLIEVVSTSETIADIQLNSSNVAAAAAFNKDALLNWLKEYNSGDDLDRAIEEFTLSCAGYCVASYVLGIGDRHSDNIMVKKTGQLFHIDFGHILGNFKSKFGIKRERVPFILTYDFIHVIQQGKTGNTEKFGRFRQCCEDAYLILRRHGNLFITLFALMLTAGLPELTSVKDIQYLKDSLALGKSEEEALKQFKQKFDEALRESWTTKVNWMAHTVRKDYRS
Casein kinase I isoform gamma-1 (Homo sapiens), sequence (Q9HCP0 whole entry, looked up, canonical isoform): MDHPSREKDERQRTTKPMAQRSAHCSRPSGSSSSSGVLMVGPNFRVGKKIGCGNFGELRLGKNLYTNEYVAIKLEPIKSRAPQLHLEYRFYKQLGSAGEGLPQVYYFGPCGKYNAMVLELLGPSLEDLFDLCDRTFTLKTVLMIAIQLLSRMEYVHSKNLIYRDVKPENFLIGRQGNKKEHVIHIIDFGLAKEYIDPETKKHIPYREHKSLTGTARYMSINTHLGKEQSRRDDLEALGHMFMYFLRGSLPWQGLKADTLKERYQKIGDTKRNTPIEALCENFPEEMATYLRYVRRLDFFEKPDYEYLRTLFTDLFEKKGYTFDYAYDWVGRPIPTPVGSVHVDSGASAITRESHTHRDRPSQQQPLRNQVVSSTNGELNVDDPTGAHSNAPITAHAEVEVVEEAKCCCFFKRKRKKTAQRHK
Ephrin type-A receptor 5 (Homo sapiens), sequence (P54756 whole entry): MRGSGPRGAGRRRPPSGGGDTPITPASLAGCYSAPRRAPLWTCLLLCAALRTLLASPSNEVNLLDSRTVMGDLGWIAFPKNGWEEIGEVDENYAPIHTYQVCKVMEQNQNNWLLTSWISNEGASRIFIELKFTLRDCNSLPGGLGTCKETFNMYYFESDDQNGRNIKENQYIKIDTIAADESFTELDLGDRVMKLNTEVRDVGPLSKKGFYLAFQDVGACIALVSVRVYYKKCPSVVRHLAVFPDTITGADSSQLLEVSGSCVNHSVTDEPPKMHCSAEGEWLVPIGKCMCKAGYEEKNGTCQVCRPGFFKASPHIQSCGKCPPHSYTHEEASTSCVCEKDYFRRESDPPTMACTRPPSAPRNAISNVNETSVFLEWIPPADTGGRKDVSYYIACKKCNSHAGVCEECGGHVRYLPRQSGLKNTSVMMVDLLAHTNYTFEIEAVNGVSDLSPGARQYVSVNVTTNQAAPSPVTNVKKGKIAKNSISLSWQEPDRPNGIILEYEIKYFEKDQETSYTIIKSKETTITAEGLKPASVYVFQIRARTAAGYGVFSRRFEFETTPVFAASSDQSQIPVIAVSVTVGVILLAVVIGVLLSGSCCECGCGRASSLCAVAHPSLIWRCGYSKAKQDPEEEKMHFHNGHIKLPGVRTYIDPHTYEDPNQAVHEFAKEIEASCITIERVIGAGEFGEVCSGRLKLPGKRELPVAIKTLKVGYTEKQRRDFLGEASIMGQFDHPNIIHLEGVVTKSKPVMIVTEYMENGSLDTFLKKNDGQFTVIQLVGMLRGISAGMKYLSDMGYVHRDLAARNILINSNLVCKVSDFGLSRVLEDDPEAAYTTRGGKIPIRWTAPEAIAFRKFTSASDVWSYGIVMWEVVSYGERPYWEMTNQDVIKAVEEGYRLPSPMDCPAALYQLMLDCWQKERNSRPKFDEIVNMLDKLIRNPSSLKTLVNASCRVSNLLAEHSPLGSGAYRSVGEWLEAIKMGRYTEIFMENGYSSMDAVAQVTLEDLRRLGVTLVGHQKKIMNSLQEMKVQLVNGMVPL

| Structure (SMILES) | Activity [1] | Activity [2] [%] | Activity [3] | Activity [4] | Activity [5] | Activity [6] | Activity [7] | Activity [8] | Activity [9] |
| --- | --- | --- | --- | --- | --- | --- | --- | --- | --- |
| COc1ccc([C@H](Cc2nnn[nH]2)NC(=O)c2ncnc3[nH]ccc23)cc1 | 111% | 108 | 94% | 106% | 97% | 88% | 102% | 103% | 97% |
| CC(C)[C@@H](Nc1ncnc2[nH]ccc12)c1ccc2c(c1)S(=O)(=O)CCC2 | 96% | 112 | 102% | 91% | 101% | 98% | 110% | 108% | 102% |
| CNCc1cc(-c2cc3c(N[C@@H](c4ccc5c(c4)S(=O)(=O)CCC5)C(C)C)ncnc3[nH]2)co1 | 86% | 47 | 99% | 92% | 92% | 96% | 78% | 97% | 105% |
| COc1ccc([C@@H](Cc2nnn[nH]2)NC(=O)c2ncnc3[nH]ccc23)cc1 | 111% | 111 | 95% | 88% | 102% | 105% | 106% | 100% | 95% |
| CC(C)[C@H](Nc1ncnc2[nH]ccc12)c1ccc2c(c1)S(=O)(=O)CCC2 | 117% | 104 | 97% | 86% | 100% | 89% | 102% | 107% | 99% |
| CC(C)[C@H](Nc1ncnc2[nH]c(-c3cnn(C)c3C#N)cc12)c1ccc2c(n1)OCCO2 | 105% | 79 | 100% | 89% | 86% | 82% | 102% | 99% | 104% |
| CC(C)[C@@H](Nc1ncnc2[nH]c(-c3cnn(C)c3C#N)cc12)c1ccc2c(n1)OCCO2 | 101% and 108% | – | 87% and 99% | 75% and 91% | 92% and 84% | 92% and 93% | 91% and 90% | 103% and 101% | 83% and 102% |
| C[C@H](C(=O)O)[C@@H](NC(=O)c1ncnc2[nH]ccc12)c1ccc(Br)cc1 | 98% | 94 | 92% | 105% | 97% | 87% | 99% | 103% | 100% |

Further lines, results first:

| Activity [1] | Activity [2] [%] | Activity [3] | Activity [4] | Activity [5] | Activity [6] | Activity [7] | Activity [8] | Activity [9] | Structure (SMILES) |
| --- | --- | --- | --- | --- | --- | --- | --- | --- | --- |
| 108% | 101 | 94% | 115% | 91% | 95% | 102% | 106% | 105% | Cn1ncc(-c2cc3c(N[C@@H](c4ccc5c(n4)OCCO5)C(C)(C)C)ncnc3[nH]2)c1C#N |
| 111% | 75 | 97% | 97% | 100% | 99% | 80% | 103% | 104% | CNC(=O)Cn1cc(-c2cc3c(N[C@@H](c4ccc5c(c4)S(=O)(=O)CCC5)C(C)C)ncnc3[nH]2)cn1 |
| 105% | 107 | 100% | 86% | 99% | 89% | 100% | 97% | 103% | CC(C)[C@@H](Nc1ncnc2[nH]c(C(=O)N[C@@H]3CCN(C)C3)cc12)c1ccc2c(c1)S(=O)(=O)CCC2 |
| 111% | 48 | 99% | 98% | 105% | 95% | 74% | 98% | 96% | Cc1nn(C)cc1-c1cc2c(N[C@H](c3ccc4c(c3)S(=O)(=O)CCC4)C(C)C)ncnc2[nH]1 |
